B1: WNT: growth factor WNT3A, Recombinant Human Wnt-3a Protein (protein, UniProt P56704 19-352, looked up)
Protein Wnt-3a: SYPIWWSLAVGPQYSSLGSQPILCASIPGLVPKQLRFCRNYVEIMPSVAEGIKIGIQECQHQFRGRRWNCTTVHDSLAIFGPVLDKATRESAFVHAIASAGVAFAVTRSCAEGTAAICGCSSRHQGSPGKGWKWGGCSEDIEFGGMVSREFADARENRPDARSAMNRHNNEAGRQAIASHMHLKCKCHGLSGSCEVKTCWWSQPDFRAIGDFLKDKYDSASEMVVEKHRESRGWVETLRPRYTYFKVPTERDLVYYEASPNFCEPNPETGSFGTRDRTCNVSSHGIDGCDLLCCGRGHNARAERRREKCRCVFHWCCYVSCQECTRVYDVHTCK

Key:
Type in all cases: cell-based
[1] = tested on: human salivary gland epithelial cells; test: Small molecule compound combination check in K-SFM; conditions: for result of addition to the culture: various combinations of small molecule compounds
Excerpt: Isoproterenol had no effect.

[2] = tested on: human salivary gland epithelial cells; test: Concentration screening of small molecule compounds and their combination in Dermacult (KEM); conditions: added in combination to KEM (Dermacult)
Procedure: Dermacult, which can stably culture human salivary gland epithelial cells in CDM, was used as the epithelial cell culture medium (keratinocyte expansion medium, KEM), and the small molecule compounds ROCK I/II inhibitor (Y-27632), TGF-beta pathway inhibitor (A83-01), and BMP pathway inhibitor (LDN193189) were added to determine the optimal concentrations at which cell characteristics were maintained and stable long-term culture was achieved, respectively (FIG. 3).
Finally, the combination experiments with different concentrations of the small molecule compounds confirmed that salivary gland epithelial cell growth was best maintained when Y-27632 10 μM, A83-01 1 μM, and LDN193189 0.1 μM were added to KEM (FIG. 4).

[3] = tested on: human salivary gland epithelial cells; test: Addition of WNT during cell separation with initial SCM in K-SFM
Procedure: • (1) The cells were homogenized in 10 ml culture medium, spread evenly onto a 100×20 mm culture dish, and then incubated in an incubator at 37° C. and 5% CO2. In this case, the composition of each culture medium is as shown in Table 1. • (2) To perform the subfractionation culturing method (SCM) to isolate epithelial monoclonal cells, after 2 hours, the culture medium containing the cells was transferred to a new 100×20 mm culture dish. This procedure was repeated two more times. • (3) After 24 hours, the dish resulting from (2) was cultured, and the existing culture medium was removed every 2-3 days and replaced it with fresh culture medium. • (4) After confirming the formation of colonies, when the size of a cell cluster forming one colony exceeded 1 cm^2, the culture medium was removed, the cluster was marked with a hydrophobic pen, and the residual culture medium was removed using 1×PBS. 50 to 100 μL of TrypLE+Y27632 was added, and the cells were stored in an incubator at 37° C. and 5% CO2 environment for 15 minutes. • (5) Each cell population detached from the dish by TrypLE was added to a separate 1.5 ml tube, and 1 ml of culture medium was added. • (6) After centrifugation at 300 g for 5 minutes at 4° C., the supernatant was removed, and the cells were homogenized and spread in 250 μL of fresh culture medium into each well of a 48-well plate for each cell population. […]

Molecule	result of addition to the culture [1]	concentration at which salivary gland epithelial cell growth was best maintained [2] [µM]	further results
Cc1cccc(-c2nn(C(=S)Nc3ccccc3)cc2-c2ccnc3ccccc23)n1 [A83-01]	universally good results	1	–
Cc1c[nH]c(-c2cnc(NCCNc3ccc(C#N)cn3)nc2-c2ccc(Cl)cc2Cl)n1 [Chir99021]	poor results	–	–
CC(C)Oc1ccc(-c2cnc3c(-c4ccnc5ccccc45)cnn3c2)cc1 [DMH-1]	–	–	concentration giving effects similar to Dermacult's YAL ([1]; LDN193189 replaced with DMH-1): 1 µM
CC(C)NCC(O)c1ccc(O)c(O)c1 (centres unmarked) [Isoproterenol]	no effect	–	–
c1ccc2c(-c3cnn4cc(-c5ccc(N6CCNCC6)cc5)cnc34)ccnc2c1 [LDN193189]	–	0.1	–
O=C(NOC[C@H](O)CO)c1ccc(F)c(F)c1Nc1ccc(I)cc1F [PD0325901]	poor results	–	–
C[C@@H](N)[C@H]1CC[C@H](C(=O)Nc2ccncc2)CC1 [Y-27632]	universally good results	10	–
B1	–	–	effect on cell growth ([3]; initial addition): rapid cell growth; effect on cell morphology ([3]; prolonged addition): changed the morphology of the cells

— patent US20250049860A1, “METHOD FOR ISOLATING, MAINTAINING, PROLIFERATING, AND DIFFERENTIATING MONOCLONAL CELLS DERIVED FROM HUMAN SALIVARY GLAND EPITHELIAL STEM CELLS OR PROGENITOR CELLS AND PRODUCTION METHOD FOR EXTRACELLULAR VESICLES FOR TREATING SALIVARY GLAND DISEASES” (INDUSTRY-ACADEMIC COOPERATION FOUNDATION, YONSEI UNIVERSITY, priority 2021, published 2025)
